molecular target: Acetylcholinesterase (Electrophorus electricus, UniProt O42275); assay: Inhibition of electric eel AChE using acetylthiocholine substrate by Ellman's reagent based method
Sequence (O42275 whole entry): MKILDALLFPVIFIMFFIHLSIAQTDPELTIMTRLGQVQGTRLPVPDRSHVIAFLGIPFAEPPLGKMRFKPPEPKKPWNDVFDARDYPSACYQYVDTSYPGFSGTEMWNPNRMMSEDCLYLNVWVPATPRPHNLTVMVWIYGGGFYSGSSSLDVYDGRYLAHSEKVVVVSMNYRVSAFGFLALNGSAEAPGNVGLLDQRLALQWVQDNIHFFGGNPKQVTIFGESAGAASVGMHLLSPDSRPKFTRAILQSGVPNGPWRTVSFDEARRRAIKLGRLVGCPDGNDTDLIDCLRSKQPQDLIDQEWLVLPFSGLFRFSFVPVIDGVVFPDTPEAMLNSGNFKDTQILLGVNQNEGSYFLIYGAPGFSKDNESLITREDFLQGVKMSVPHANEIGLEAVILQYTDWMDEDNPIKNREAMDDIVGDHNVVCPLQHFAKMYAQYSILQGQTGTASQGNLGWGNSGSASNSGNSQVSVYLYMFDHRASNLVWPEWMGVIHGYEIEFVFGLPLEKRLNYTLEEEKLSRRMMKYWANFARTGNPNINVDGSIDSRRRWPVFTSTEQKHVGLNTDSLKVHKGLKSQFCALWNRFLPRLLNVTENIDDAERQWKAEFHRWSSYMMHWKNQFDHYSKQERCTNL

Structure (SMILES) | IC50
Cc1ccccc1C[n+]1ccc(-c2cc3ccccc3o2)cc1 | 6.8 nM
O=[N+]([O-])c1ccccc1C[n+]1ccc(-c2cc3ccccc3o2)cc1 | 4.9 nM
Cc1cc(C)cc(C[n+]2ccc(-c3cc4ccccc4o3)cc2)c1 | 4.1 nM
O=[N+]([O-])c1ccc(C[n+]2ccc(-c3cc4cc(Br)ccc4o3)cc2)cc1 | 8.1 nM
COc1cccc2cc(-c3cc[n+](Cc4ccc(Br)cc4)cc3)oc12 | 29.5 nM
COc1cccc2cc(-c3cc[n+](Cc4cccc(F)c4)cc3)oc12 | 18.9 nM
COc1cccc2cc(-c3cc[n+](Cc4cccc(Br)c4)cc3)oc12 | 22.4 nM
O=[N+]([O-])c1ccc(C[n+]2ccc(-c3cc4ccccc4o3)cc2)cc1 | 5.8 nM
Brc1ccc2oc(-c3cc[n+](Cc4ccccc4)cc3)cc2c1 | 13.5 nM
COc1cccc2cc(-c3cc[n+](Cc4ccc([N+](=O)[O-])cc4)cc3)oc12 | 10.6 nM
Brc1ccc(C[n+]2ccc(-c3cc4ccccc4o3)cc2)cc1 | 16 nM
Fc1ccc(C[n+]2ccc(-c3cc4cc(Br)ccc4o3)cc2)cc1 | 8.7 nM
COc1cccc2cc(-c3cc[n+](Cc4ccccc4)cc3)oc12 | 26.5 nM
Brc1ccc(C[n+]2ccc(-c3cc4cc(Br)ccc4o3)cc2)cc1 | 31.5 nM
Fc1cccc(C[n+]2ccc(-c3cc4cc(Br)ccc4o3)cc2)c1 | 9.6 nM

molecular target: Acetylcholinesterase (Electrophorus electricus) (UniProt O42275); assay: Potency index, ratio of IC50 for donepezil to IC50 for compound against electric eel AChE using acetylthiocholine substrate by Ellman's reagent based method
Sequence (O42275 24-633 limits assumed): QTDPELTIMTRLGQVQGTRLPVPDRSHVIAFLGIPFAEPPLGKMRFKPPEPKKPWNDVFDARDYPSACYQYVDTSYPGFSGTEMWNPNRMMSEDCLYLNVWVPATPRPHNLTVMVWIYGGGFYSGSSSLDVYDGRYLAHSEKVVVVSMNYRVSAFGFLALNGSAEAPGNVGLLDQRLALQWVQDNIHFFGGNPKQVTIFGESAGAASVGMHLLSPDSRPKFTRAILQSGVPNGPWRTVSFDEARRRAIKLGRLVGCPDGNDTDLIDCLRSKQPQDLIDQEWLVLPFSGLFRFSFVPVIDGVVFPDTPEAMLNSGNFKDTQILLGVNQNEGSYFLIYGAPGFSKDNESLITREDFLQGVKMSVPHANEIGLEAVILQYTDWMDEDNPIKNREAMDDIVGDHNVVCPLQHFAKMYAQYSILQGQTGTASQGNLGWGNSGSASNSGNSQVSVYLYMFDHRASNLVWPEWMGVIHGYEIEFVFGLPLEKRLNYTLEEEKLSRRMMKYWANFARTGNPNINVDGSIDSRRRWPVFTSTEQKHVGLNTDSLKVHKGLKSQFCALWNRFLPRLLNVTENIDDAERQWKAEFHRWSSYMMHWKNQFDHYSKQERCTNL

Structure (SMILES) | Ratio IC50
Cc1cc(C)cc(C[n+]2ccc(-c3cc4ccccc4o3)cc2)c1 | 7
